{
  "source": "patent US8466203B2",
  "about": "“Method of stabilizing human eye tissue by reaction with nitrite and related agents such as nitro compounds” (priority 2006, dated 2013)",
  "key": {"porcine sclera [1]": {"system": "porcine sclera", "assay": "Thermal shrinkage temperature analysis of porcine scleral strips", "excerpt": "Thermal shrinkage temperature or denaturation temperature (Ts) is a technique that has been used for decades in studying collagen cross-linking. As collagen fibers are progressively heated, a threshold temperature is reached at which point disruption of hydrogen bonding in the collagen molecule triple helix occurs, resulting in unwinding of the triple helices. The denaturation of tertiary protein structure results in a rapid shrinkage of the tissue of up to 80%. This phenomenon can be expressed in various ways including temperature of onset of tissue shrinkage, temperature at maximal tissue shrinkage, and temperature at 50% of maximal tissue shrinkage, for example. In addition, differential scanning calorimetry (DSC) is related to thermal shrinkage temperature analysis and is widely used to evaluate biomaterial cross-linking. Thermal shrinkage temperature is essentially a simplified version of DSC and can be used effectively to screen the cross-linking efficacy of compounds. For the purposes of this study, the onset of shrinkage is considered the Ts and the temperature at which 50% of maximal shrinkage has occurred is T50. Graphs depicting the relationship between degree of shrinkage and temperature indicate differences in degree of cross-linking between groups. Thus, stabilization of collagen fiber structures through non-enzymatic cross-linking increases Ts and T50.\nThis system can perform multiple Ts assays in succession, allowing rapid screening of a number of potential cross-linking agents and conditions. […] Inlet and outlet fittings allow for constant circulation of heated water which is modulated by a digitally controlled water bath equipped with a water pump. The entire box is placed on a digital photo scanner connected to a Windows based computer. Beginning at 50° C. the temperature is raised at a rate of 1° C./min and serial scans are taken at every degree increase in temperature up to 80° C. […] As the tissue shrinks, the images are captured by the scanner. The image files are later analyzed for 2-dimensional area using NIH Image J software and % shrinkage calculations are made using Microsoft Excel for graphing purposes. This method obviates the need for removal of tissue pieces from the water bath with manual micrometer measurements as described by the UVR group (Spoerl, E., et al., 2004).\nUsing this simple, reproducible assay enables the screening of a number of compounds for cross-linking efficacy. This is first performed using porcine eyes because of their low cost. Follow up studies can be performed using human eyes. Porcine eyes are obtained within 6 hrs of sacrifice (Hatfield Meat Packing, Inc., Hatfield Pa.). Eyes showing clear corneas and intact epithelia are chosen for study. […] Each strip is then cross-linked using a nitro agent. […] Opthalmol. 1999; 117:166-169) for 24-96 hrs. Following incubation, the samples are evaluated for degree of cross-linking using the Ts assay as described above.\nFrom the data, Ts curves are generated for each compound and condition studied. Each data point is the average of 3 independent samples."}, "ARPE-19 cells": {"system": "ARPE-19 cells", "excerpt": "A cytotoxicity study was undertaken to obtain an impression of the level of cellular tolerance to these compounds. For pilot experiments ARPE-19 cells were used. This is an immortal human retinal pigment epithelial cell line commonly used for experiments related to macular degeneration. In these pilot studies, the ARPE-19 cells serve as a surrogate for cytotoxicity experiments. Primary cultures of bovine corneal endothelial cells were also used in the cytotoxicity studies described. Bovine corneal cells have more direct relevance for evaluating potential cytotoxic effects during cross-linking of living eye tissue.\nARPE-19 cells were grown to 80% confluence in 96 well tissue culture plates. The cells were then exposed to varying concentrations of NaNO2 and 2-nitroethanol in their culture medium and evaluated for cell death using trypan blue (TB) staining (0.4% for 5 min) after 24 hrs."}, "[2]": {"settings": "4° C.", "quoted_text": "Adult porcine eyes were obtained within 12 hours of. sacrifice and submerged in solutions of 0, 10, 100 mM NaNO2 and 100 mM NaCl buffered with 50 mM NaH2PO4/Na2HPO4 (pH 7.4) following bubbling with 99% Argon/1% O2 in order to limit the amount of potential nitrite auto-oxidation caused by oxygen. Penicillin/Streptomycin was added (10 μl/ml) to prevent bacterial overgrowth. After 24 hours of incubation at 4° C., the aqueous humor was sampled for nitrite concentration using a modification of the Greiss colorimetric assay.\nAdult porcine eyes were obtained within 12 hrs of sacrifice and submerged in solutions of 0, 10, 100 mM NaNO2 and 100 mM NaCl buffered with 50 mM NaH2PO4/Na2HPO4 (pH 7.4) following bubbling with 100% Argon in order to limit the amount of potential nitrite auto-oxidation caused by oxygen. Penicillin/Streptomycin was added (10 ul/ml) to prevent bacterial overgrowth. After 24 hrs of incubation at 4° C., the aqueous humor was sampled for nitrite concentration using a modification of the Greiss colorimetric assay."}, "type I collagen": {"target": "type I collagen (Bos taurus, UniProt P02453+P02465)", "sequence (P02453 162-1217 limits assumed)": "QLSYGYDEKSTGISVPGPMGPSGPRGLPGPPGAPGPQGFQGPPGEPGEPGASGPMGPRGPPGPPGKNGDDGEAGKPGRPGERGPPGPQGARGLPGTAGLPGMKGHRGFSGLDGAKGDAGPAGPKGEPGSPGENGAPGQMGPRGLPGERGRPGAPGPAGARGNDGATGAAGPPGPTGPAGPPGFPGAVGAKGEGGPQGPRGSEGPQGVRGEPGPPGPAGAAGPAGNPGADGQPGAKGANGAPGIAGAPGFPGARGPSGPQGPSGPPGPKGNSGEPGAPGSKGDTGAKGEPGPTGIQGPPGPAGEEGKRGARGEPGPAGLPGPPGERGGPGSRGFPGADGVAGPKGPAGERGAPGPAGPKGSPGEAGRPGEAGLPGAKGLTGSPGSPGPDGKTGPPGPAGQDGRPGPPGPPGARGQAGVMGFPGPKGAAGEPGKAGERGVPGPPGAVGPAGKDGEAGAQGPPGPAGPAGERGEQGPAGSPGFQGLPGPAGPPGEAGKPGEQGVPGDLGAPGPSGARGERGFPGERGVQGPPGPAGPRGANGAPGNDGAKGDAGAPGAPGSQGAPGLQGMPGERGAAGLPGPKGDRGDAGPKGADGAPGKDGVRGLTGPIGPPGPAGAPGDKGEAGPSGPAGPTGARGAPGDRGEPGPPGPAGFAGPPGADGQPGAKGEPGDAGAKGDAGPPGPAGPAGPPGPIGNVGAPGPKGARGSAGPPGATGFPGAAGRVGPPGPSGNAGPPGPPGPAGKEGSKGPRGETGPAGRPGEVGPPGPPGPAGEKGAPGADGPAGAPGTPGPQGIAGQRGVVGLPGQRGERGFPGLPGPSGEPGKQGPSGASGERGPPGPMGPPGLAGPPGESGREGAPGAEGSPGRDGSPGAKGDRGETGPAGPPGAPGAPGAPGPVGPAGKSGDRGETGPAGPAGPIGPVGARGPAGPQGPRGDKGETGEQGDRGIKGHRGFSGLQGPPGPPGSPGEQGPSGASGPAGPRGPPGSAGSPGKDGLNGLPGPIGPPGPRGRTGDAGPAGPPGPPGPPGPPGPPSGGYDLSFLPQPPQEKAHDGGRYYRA", "sequence (P02465 80-1117 limits assumed)": "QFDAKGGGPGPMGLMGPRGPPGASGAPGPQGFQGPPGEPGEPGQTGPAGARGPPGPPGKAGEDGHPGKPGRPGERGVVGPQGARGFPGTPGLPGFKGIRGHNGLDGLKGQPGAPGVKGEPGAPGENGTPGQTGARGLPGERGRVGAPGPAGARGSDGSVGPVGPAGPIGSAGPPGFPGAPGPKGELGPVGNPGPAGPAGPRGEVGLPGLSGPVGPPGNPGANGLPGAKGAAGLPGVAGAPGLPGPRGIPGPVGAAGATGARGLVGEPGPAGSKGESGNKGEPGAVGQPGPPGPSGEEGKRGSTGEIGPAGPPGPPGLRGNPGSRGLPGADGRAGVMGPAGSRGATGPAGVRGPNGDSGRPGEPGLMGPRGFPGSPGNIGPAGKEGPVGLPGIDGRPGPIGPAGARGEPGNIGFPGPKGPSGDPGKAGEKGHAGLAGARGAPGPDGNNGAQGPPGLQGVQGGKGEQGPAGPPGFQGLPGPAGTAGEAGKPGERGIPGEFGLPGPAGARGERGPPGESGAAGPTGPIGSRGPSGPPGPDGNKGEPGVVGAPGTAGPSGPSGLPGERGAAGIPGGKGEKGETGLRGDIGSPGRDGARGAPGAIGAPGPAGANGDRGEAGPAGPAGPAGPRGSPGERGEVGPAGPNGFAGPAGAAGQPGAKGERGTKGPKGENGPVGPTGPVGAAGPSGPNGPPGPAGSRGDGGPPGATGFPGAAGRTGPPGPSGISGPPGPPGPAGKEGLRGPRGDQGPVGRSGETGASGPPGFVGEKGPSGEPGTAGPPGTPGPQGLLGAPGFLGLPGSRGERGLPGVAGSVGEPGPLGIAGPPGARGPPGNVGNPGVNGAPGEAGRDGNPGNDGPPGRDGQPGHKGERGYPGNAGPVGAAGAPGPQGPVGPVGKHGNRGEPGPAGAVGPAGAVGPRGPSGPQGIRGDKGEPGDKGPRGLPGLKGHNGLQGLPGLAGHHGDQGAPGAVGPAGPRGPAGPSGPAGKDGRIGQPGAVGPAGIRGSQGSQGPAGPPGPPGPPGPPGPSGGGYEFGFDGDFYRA", "settings": "7 day incubation, pH 7.4, 4° C.", "quoted_text": "Samples of pepsin-solubilized, bovine skin collagen type I (Purecol, 3 mg/ml, Inamed Corporation, Fremont, Calif., USA) dissolved in 0.012N HCl were spiked with dH2O containing 1M NaNO2 or NaCl concentration to obtain final concentrations of 0 mM, 10 mM, 100 mM NaNO2, and 100 mM NaCl. […] These conditions were identical to those used in the preincubation treatment of collagen for biomechanical testing. Following a 24 hour incubation (4° C.), an aliquot from each sample was added into SDS-PAGE sample buffer (Biorad) in a ratio of 1:2 (sample:sample buffer), reduced by heating at 100° C. for 5 minutes with dithiothreitol (DTT), and analyzed by SDS-PAGE. The separating gel was 5% acrylamide and stacking gel 4%. Equivalent quantities of protein (6 μg per lane) were loaded onto separate wells. The samples were run at 25 volts for approximately 3.5 hours, which was the time necessary for the dye front to leave the bottom of the gel. The gels were then stained with Coomasie blue solution for no less than 3 hours. Following destaining, the gels were digitally photographed for densitometric analysis, which was carried out using the Un-Scan-it software program version 4.1 (Silk Scientific Corp). […]"}, "porcine sclera [3]": {"system": "porcine sclera", "settings": "200 mM, pH 5.0, 37° C., 30 hours", "quoted_text": "(§1) Adult porcine eyes were obtained within 12 hours of sacrifice and submerged in a solution of either 200 mM NaNO2 or 200 mM NaCl buffered with 200 mM NaH2PO4/Na2HPO4 (pH 5.0). Penicillin/Streptomycin was added (10 μl/ml) to prevent bacterial overgrowth. After 30 hours of incubation at 37° C., the corneas were excised at the limbus and photographed."}, "porcine cornea [4]": {"system": "porcine cornea", "settings": "200 mM, pH 5.0, 37° C.", "quoted_text": "as §1\nAfter 30 and 80 hours of incubation at 37° C., the corneas were excised at the limbus and subjected to shrinkage temperature (thermal denaturation) analysis. The intact cornea was heated in 2° C. increments every 5 minutes using a digitally controlled water bath. The maximal dimensions in the long and short axis were measured using a micrometer under visualization with an operating microscope. The percentage of tissue shrinkage was then estimated by using 2 dimensional area calculations from the micrometer readings."}, "porcine cornea [5]": {"system": "porcine cornea", "settings": "200 mM, pH 5.0, 37° C., 30 hours", "quoted_text": "as §1"}, "[6]": {"system": "fibroblast-populated collagen gels", "settings": "100 mM; pretreatment pH 4.0 24 hours and posttreatment pH 7.4 seven days", "quoted_text": "Biaxial mechanical properties of the collagen gels were examined by performing equibiaxial load controlled experiments after 72 hours of culture for pretreated and 10 days of culture for posttreated collagen gels. To perform the planar biaxial mechanical test, the loading frame was first removed and the gels were floated to the top of their Petri dish using standard media (DMEM with 10% FBS and antibiotics) at 37° C. Gels were loaded by applying equal weights on all sides of the gel simultaneously (equibiaxial loading). First, gels were preconditioned by cyclically applying and removing 1 gram weights on all sides. […] One prominent feature of the preconditioning response in these gels is that the gels undergo some permanent deformation, not relaxing back to their initial dimensions even when fully unloaded.\nThe magnitude of the permanent deformation associated with preconditioning was quantified by computing the associated strain (E^P11, E^P22) using the unloaded configuration of the gel at the beginning of the mechanical test as the reference state and the new, stable unloaded state achieved at the end of preconditioning as the deformed state. After preconditioning, calibrated weights from 0 to 1000 mg are applied equibiaxially in 100 mg increments. Images of the gel surface are taken 30 seconds after each load application or removal, and the strains associated with each load were computed relative to the preconditioned unloaded reference state at the beginning of the loading run.\nThe impact of sodium nitrite on vertical deformation of uniaxially constrained gels was measured during each phase of the experiment.\nInitially square fibroblast-populated collagen gels were cast and allowed to polymerize for 2 hrs. Markers were painted on the gel surface to allow tracking of deformation in the central region during the remainder of the experiment. […] At 72 hrs, the gel was mechanically tested. […] Then, the gel was loaded in a series of smaller steps and the response quantified (loading phase)."}, "porcine cornea [7]": {"system": "porcine cornea", "assay": "Gross stiffness of porcine corneal strips handled with a forceps", "settings": "100 mM, pH 7.4, 37° C., 48 hrs", "method": "Fresh porcine corneal strips and corneoscleral complexes obtained within 6 hrs of sacrifice and incubated at 37° C. in buffered solutions (pH 7.4) containing 20% Dextran (T500) and either 100 mM NaNO2 or 100 mM of one each of the specified β-nitro alcohols\nThese images were taken from tissues cross-linked with nitrite and the β-nitro alcohols 2-nitroethanol, 2-nitro-1-propanol, and […], for 48 hrs. […] Fresh porcine corneal strips and corneoscleral complexes were obtained within 6 hrs of sacrifice and incubated at 37° C. in buffered solutions (pH 7.4) containing 20% Dextran (T500) and either 100 mM NaNO2 or 100 mM of one each of the β-nitro alcohols. After 48 hrs, the following images were obtained. […] FIGS. 13 (B and D)"}, "corneal endothelial cell": {"system": "corneal endothelial cell", "settings": "3 hrs exposure, rabbit organ culture, electron microscopy, Green 1977; cited from earlier work"}, "Solubility in water": {"assay": "Solubility in water", "assay_type": "physicochemical"}, "[8]": {"settings": "NaNO2 100 mM pH 3 with 1 mM urea"}, "[9]": {"settings": "NaNO2 100 mM pH 3 with 10 mM urea"}, "[10]": {"settings": "NaNO2 100 mM pH 3 with 100 mM urea"}, "[11]": {"settings": "100 mM, 1% DMSO, pH 7.4, 96 hrs"}},
  "note": "Like-named read-outs stand apart in the source and are kept apart here.",
  "data": [
    {"molecule": "O=N[O-].[Na+]", "note": "[NaNO2, sodium nitrite]", "values": [
      {"measurement": "blocking of the cross-linking effect by equimolar urea", "setting": "porcine sclera [1]", "value": "unable to block"},
      {"measurement": "T50", "setting": "porcine sclera [1]; 100 mM, pH 3, 96 hrs", "value": 69.3, "unit": "°C"},
      {"measurement": "T50 Δ", "setting": "porcine sclera [1]; 100 mM, pH 3, 96 hrs", "value": 4.0, "unit": "°C"},
      {"measurement": "T50", "setting": "porcine sclera [1]; 100 mM, pH 5, 96 hrs", "value": 67.3, "unit": "°C"},
      {"measurement": "T50 Δ", "setting": "porcine sclera [1]; 100 mM, pH 5, 96 hrs", "value": 2.0, "unit": "°C"},
      {"measurement": "T50", "setting": "porcine sclera [1]; [8]", "value": 70.1, "unit": "°C"},
      {"measurement": "T50 Δ", "setting": "porcine sclera [1]; [8]", "value": 4.8, "unit": "°C"},
      {"measurement": "T50", "setting": "porcine sclera [1]; [9]", "value": 69.7, "unit": "°C"},
      {"measurement": "T50 Δ", "setting": "porcine sclera [1]; [9]", "value": 4.4, "unit": "°C"},
      {"measurement": "T50", "setting": "porcine sclera [1]; [10]", "value": 65.6, "unit": "°C"},
      {"measurement": "T50 Δ", "setting": "porcine sclera [1]; [10]", "value": 0.3, "unit": "°C"},
      {"measurement": "shifts in Ts (in words)", "setting": "porcine sclera [1]; pH 3", "value": "approximately equal shifts in Ts"},
      {"measurement": "T50 (temperature at 50% of maximal shrinkage)", "setting": "porcine sclera [1]; pH 7.4", "value": 65.7, "unit": "°C"},
      {"measurement": "T50 Δ (change in 50% shrinkage temperature compared to control)", "setting": "porcine sclera [1]; pH 7.4", "value": 0.4, "unit": "°C"},
      {"measurement": "effect on Ts (in words)", "setting": "porcine sclera [1]; pH 7.4", "value": "no effect"},
      {"measurement": "tolerable level relative to genipin", "setting": "ARPE-19 cells", "value": "at least 100 ×"},
      {"measurement": "tolerance by cells (trypan blue)", "setting": "ARPE-19 cells; 100 mM, 24 hrs", "value": "tolerated by cells"},
      {"measurement": "highest tolerated level", "setting": "ARPE-19 cells; ARPE-19", "value": 100, "unit": "mM"},
      {"measurement": "Nitrite concentration in the aqueous humor, of the incubation fluid", "setting": "[2]; 10 mM NaNO2, pH 7.4, 24 hours", "value": 35.5, "unit": "%"},
      {"measurement": "Nitrite concentration in the aqueous humor, of the incubation fluid", "setting": "[2]; 100 mM NaNO2, pH 7.4, 24 hours", "value": 62.8, "unit": "%"},
      {"measurement": "collagen cross-linking by SDS-PAGE", "setting": "type I collagen; 10 mM", "value": "No differences are observed"},
      {"measurement": "collagen cross-linking by SDS-PAGE", "setting": "type I collagen; 100 mM", "value": "cross-linking of collagen primary strands is indicated"},
      {"measurement": "contour changes in sclera samples", "setting": "porcine sclera [3]", "value": "dramatic contour changes"},
      {"measurement": "increase of onset of tissue shrinkage", "setting": "porcine cornea [4]; 30 hours of treatment", "value": "approximately 4 °C"},
      {"measurement": "increase of onset of tissue shrinkage", "setting": "porcine cornea [4]; 80 hours of treatment", "value": "~8", "unit": "°C"},
      {"measurement": "contour changes in the corneas", "setting": "porcine cornea [5]", "value": "Dramatic contour changes"},
      {"measurement": "vertical deformation associated with preconditioning", "setting": "[6]", "value": "reduced vertical deformation associated with preconditioning"},
      {"measurement": "vertical deformation at 1 g equibiaxial load", "setting": "[6]", "value": "reduced vertical deformation at 1 g equibiaxial load"},
      {"measurement": "vertical remodeling", "setting": "[6]", "value": "reduced vertical remodeling"},
      {"measurement": "stiffness change when handled with a forceps", "setting": "porcine cornea [7]", "value": "intermediate effect"}
    ]},
    {"molecule": "Benzalkonium chloride", "values": [
      {"measurement": "Toxic concentration", "setting": "corneal endothelial cell", "value": "(0.0001%)"}
    ]},
    {"molecule": "CC(C)CCON=O", "note": "[Isopentyl nitrite, isopentyl nitrite, reference compound]", "values": [
      {"measurement": "T50", "setting": "porcine sclera [1]; [11]", "value": 65.4, "unit": "°C"},
      {"measurement": "T50 Δ", "setting": "porcine sclera [1]; [11]", "value": 0.1, "unit": "°C"},
      {"measurement": "shift in Ts (in words)", "setting": "porcine sclera [1]; neutral pH, up to 100 mM", "value": "did not result in a shift in Ts"},
      {"measurement": "solubility in water", "setting": "Solubility in water", "value": "poor solubility in water"}
    ]}
  ]
}
